Structures are written as SMILES.

From publication PMC8388125, “Kinetic and Structural Characterization of the Self-Labeling Protein Tags HaloTag7, SNAP-tag, and CLIP-tag” (Biochemistry, 2021) come the findings set out here.

T2 sequence (P59336 other isoform, or with tags, fused parts or gaps with the stated changes): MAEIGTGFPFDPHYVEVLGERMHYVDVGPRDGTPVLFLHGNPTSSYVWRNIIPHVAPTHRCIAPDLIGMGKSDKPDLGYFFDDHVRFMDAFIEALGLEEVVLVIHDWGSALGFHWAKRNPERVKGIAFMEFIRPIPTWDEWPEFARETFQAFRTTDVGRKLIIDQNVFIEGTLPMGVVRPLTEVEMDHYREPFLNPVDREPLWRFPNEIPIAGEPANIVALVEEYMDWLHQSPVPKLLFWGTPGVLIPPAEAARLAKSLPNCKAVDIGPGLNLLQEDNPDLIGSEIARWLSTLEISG

For one assay, the target named is T1, SNAP-tag (SNAP) (Homo sapiens, UniProt P16455, A127T/A154D/C150Q/C62A/G131K/G132T/G153L/K125A/K32I/L33F/M134L/N157G/Q115S/Q116H/R128A/R135S/S151G/S152D/S159E).
T1 construct: made in house; host or cells: E. coli BL21(DE3)-pLysS
T1 sequence (P16455 1-182 K32I/L33F/C62A/Q115S/Q116H/K125A/A127T/R128A/G131K/G132T/M134L/R135S/C150Q/S151G/S152D/G153L/A154D/N157G/S159E limits assumed): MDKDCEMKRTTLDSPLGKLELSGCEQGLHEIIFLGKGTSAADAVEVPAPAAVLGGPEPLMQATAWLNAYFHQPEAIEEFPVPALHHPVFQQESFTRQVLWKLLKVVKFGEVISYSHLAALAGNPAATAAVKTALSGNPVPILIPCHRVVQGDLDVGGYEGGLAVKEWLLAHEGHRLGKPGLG
Kind of assay: SNAP competitive labeling kinetics against BG-Alexa488. Format: biochemical. The conditions noted are these: nonfluorescent substrates, competition with BG-Alexa488. On the procedure:
Competitive kinetics were measured by recording FP over time using a microplate reader in a manner analogous to that for HT7 competition kinetics described above using 100 nM BG-Alexa488 as the fluorescent substrate in SNAP-FP buffer.
(§1) Data were fitted to a simplified kinetic competition model (eqs 19 and 20) described by differential eqs 21–25 using DynaFit. The dead time of the measurements and baseline FP value were put in as fixed parameters. Standard deviations (normal distribution verified) and confidence intervals of fitted parameters were estimated with the Monte Carlo method with standard settings (N = 1000, 5% worst fits discarded). [drawing 19] 19 [drawing 20] 20 where P is the SLP protein, S is the fluorescent SLP substrate, I is the nonfluorescent SLP substrate (inhibitor), PS is the protein–fluorescent substrate conjugate, and PI is the protein–nonfluorescent substrate conjugate. [drawing 21] 21 [drawing 22] 22 [drawing 23] 23 [drawing 24] 24 [drawing 25] 25
Take `Nc1nc(OCc2ccccc2)c2nc[nH]c2n1` [BG, benzylguanine]: the “kapp (value ± standard deviation)” value is listed as “(1.87 ± 0.05) × 10^4 M^–1 s^–1”. With `CC(=O)NCc1ccc(COc2nc(N)nc3[nH]cnc23)cc1` [BG-Ac], the “kapp (value ± standard deviation)” value is on record as “(1.48 ± 0.05) × 10^4 M^–1 s^–1”. Regarding `Nc1nc(OCc2ccc(CNC(=O)OC[C@@H]3[C@@H]4CCC#CCC[C@@H]43)cc2)c2nc[nH]c2n1` [BG-BCN], the “kapp (value ± standard deviation)” value was “(3.88 ± 0.07) × 10^4 M^–1 s^–1”. Take `[N-]=[N+]=NCC(=O)NCc1ccc(COc2nc(N)nc3[nH]cnc23)cc1` [BG-N3]: the “kapp (value ± standard deviation)” value was “(3.70 ± 0.09) × 10^4 M^–1 s^–1”. As for `Nc1nc(OCc2ccc(CNC(=O)C3CC4C=CC3C4)cc2)c2nc[nH]c2n1` (stereo not shown) [BG-Nor1], the “kapp (value ± standard deviation)” value is on record as “(7.34 ± 0.01) × 10^4 M^–1 s^–1”. In the case of `[N-]=[N+]=Nc1ccc(C(=O)NCc2ccc(COc3nc(N)nc4[nH]cnc34)cc2)cc1` [BG-PhN3], the “kapp (value ± standard deviation)” value is listed as “(4.78 ± 0.09) × 10^4 M^–1 s^–1”. As for `Nc1nc(OCc2ccc(CNC(=O)OC3C#CCCCCC3)cc2)c2nc[nH]c2n1` (stereo not shown) [BG-SCO], the “kapp (value ± standard deviation)” value is reported as “(3.75 ± 0.06) × 10^4 M^–1 s^–1”. Regarding `Cc1nnc(-c2ccc(CC(=O)NCc3ccc(COc4nc(N)nc5[nH]cnc45)cc3)cc2)nn1` [BG-Tz], the “kapp (value ± standard deviation)” value is “(3.94 ± 0.08) × 10^4 M^–1 s^–1”. Turning to `C=Cc1ccc(C(=O)NCc2ccc(COc3nc(N)nc4[nH]cnc34)cc2)cc1` [BG-Vbn], the “kapp (value ± standard deviation)” value was “(3.84 ± 0.07) × 10^4 M^–1 s^–1”.

In the case of `Nc1nc(Cl)cc(OCc2ccc(CNC(=O)OC[C@@H]3[C@@H]4CCC#CCC[C@@H]43)cc2)n1` [CP-BCN], the “kapp (value ± standard deviation)” value is reported as “(3.34 ± 0.31) × 10^3 M^–1 s^–1”. Turning to `[N-]=[N+]=NCC(=O)NCc1ccc(COc2cc(Cl)nc(N)n2)cc1` [CP-N3], the “kapp (value ± standard deviation)” value is given as “(6.36 ± 0.41) × 10^3 M^–1 s^–1”. In the case of `Nc1nc(Cl)cc(OCc2ccc(CNC(=O)C3CC4C=CC3C4)cc2)n1` (stereo not shown) [CP-Nor1], the “kapp (value ± standard deviation)” value is “(1.77 ± 0.04) × 10^4 M^–1 s^–1”.

As to `[N-]=[N+]=Nc1ccc(C(=O)NCc2ccc(COc3cc(Cl)nc(N)n3)cc2)cc1` [CP-PhN3], the “kapp (value ± standard deviation)” value is “(2.91 ± 0.40) × 10^3 M^–1 s^–1”.

`Nc1nc(Cl)cc(OCc2ccc(CNC(=O)OC3C#CCCCCC3)cc2)n1` (stereo not shown) [CP-SCO]: the “kapp (value ± standard deviation)” value is recorded as “(4.22 ± 0.61) × 10^3 M^–1 s^–1”.

For the compound `C=Cc1ccc(C(=O)NCc2ccc(COc3cc(Cl)nc(N)n3)cc2)cc1` [CP-Vbn], the “kapp (value ± standard deviation)” value is on record as “(5.50 ± 0.45) × 10^3 M^–1 s^–1”.

A further assay concerns the target T2, HaloTag7 (HT7) (Rhodococcus sp., UniProt P59336, A155T/A167V/A224E/C128F/C176G/D78G/E160K/E257K/G292T/H272N/K175M/K195N/L47V/L88M/N227D/P291S/S2A/S58T/T264A/V172T/Y273L/Y87F).
T2 construct: made in house; host or cells: E. coli BL21(DE3)-pLysS
Kind of assay: HT7 competitive labeling kinetics against CA-Alexa488. Conditions: HT7, nonfluorescent substrates, competition with CA-Alexa488, 37 °C. Format: biochemical. On the procedure: Competitive kinetics were measured by recording FP over time using a microplate reader (Spark20M, Tecan). The final concentrations of CA-Alexa488 (50 nM) and HT7 protein (200 nM) remained constant with varying concentrations of nonfluorescent substrates (0–1 μM) in activity buffer supplemented with 0.5 g/L BSA. Assays were performed in black nonbinding flat bottom 96-well plates with a final reaction volume of 200 μL. Labeling reactions were started by adding the HT7 protein to wells containing CA-Alexa488 and nonfluorescent substrates using an electronic 96-channel pipettor (Integra Bioscience Corp., Hudson, NH). The FP of free CA-Alexa488 was measured to obtain a baseline.
as §1
As for `O=C(NCCOCCOCCCCCCCl)OC[C@@H]1[C@@H]2CCC#CCC[C@@H]21` [CA-BCN], the “kapp (value ± standard deviation)” value is given as “(2.04 ± 0.03) × 10^5 M^–1 s^–1”. With `[N-]=[N+]=NCC(=O)NCCOCCOCCCCCCCl` [CA-N3], the “kapp (value ± standard deviation)” value is on record as “(6.00 ± 0.06) × 10^3 M^–1 s^–1”. In the case of `O=C(NCCOCCOCCCCCCCl)C1CC2C=CC1C2` (stereo not shown) [CA-Nor1], the “kapp (value ± standard deviation)” value is given as “(6.68 ± 0.06) × 10^3 M^–1 s^–1”. Regarding `O=C(CC1CC2C=CC1C2)NCCOCCOCCCCCCCl` (stereo not shown) [CA-Nor2], the “kapp (value ± standard deviation)” value is recorded as “(6.15 ± 0.07) × 10^3 M^–1 s^–1”. Take `[N-]=[N+]=Nc1ccc(C(=O)NCCOCCOCCCCCCCl)cc1` [CA-PhN3]: the “kapp (value ± standard deviation)” value was “(2.14 ± 0.02) × 10^4 M^–1 s^–1”. Take `O=C(NCCOCCOCCCCCCCl)OC1C#CCCCCC1` (stereo not shown) [CA-SCO]: the “kapp (value ± standard deviation)” value is “(2.52 ± 0.05) × 10^5 M^–1 s^–1”.

For `Cc1nnc(-c2ccc(CC(=O)NCCOCCOCCCCCCCl)cc2)nn1` [CA-Tz], the “kapp (value ± standard deviation)” value was “(3.13 ± 0.03) × 10^4 M^–1 s^–1”.

In the case of `C=Cc1ccc(C(=O)NCCOCCOCCCCCCCl)cc1` [CA-Vbn], the “kapp (value ± standard deviation)” value is on record as “(8.68 ± 0.07) × 10^3 M^–1 s^–1”.

A further assay has as its target T2, HaloTag7 (HT7). Nature of the assay: HT7 labeling kinetics via stopped flow (fluorescence anisotropy). The format is biochemical. Conditions: HT7. The procedure:
Labeling kinetics of HT7 with CA-TMR, CA-JF549, CA-CPY, CA-LIVE580, and CA-JF669 and labeling kinetics of HOB with CA-TMR were measured by recording fluorescence anisotropy changes over time using a BioLogic SFM-400 stopped-flow instrument (BioLogic Science Instruments, Claix, France) in a single-mixing configuration at 37 °C. HT7 protein and substrates in activity buffer were mixed in a 1:1 stoichiometry to reach a recordable speed for these fast reactions and to increase the information content of the traces. Concentrations were varied from 0.125 to 1 μM. The anisotropy of the free substrate was measured to obtain a baseline.
Kinetic stopped-flow data were preprocessed using a custom R script.[36],[37] Recorded pretrigger time points were removed, and time points were adjusted to start at time zero. Values from replicates were averaged. The anisotropy of the free dye was calculated by averaging anisotropy values of the baseline measurements. Preprocessed data were fitted to a kinetic model (eqs 5 and 6) described by differential eqs 7–10 using the DynaFit software.[38] The anisotropy of the free dye and the mixing delay of the stopped-flow machine were set as fixed offset and delay parameters in DynaFit. It was assumed that the protein substrate complex and the reacted product are contributing equally to the anisotropy signal. […] Standard deviations (normal distribution verified) and confidence intervals of fitted parameters were estimated with the Monte Carlo method[39] with standard settings (N = 1000, 5% worst fits discarded). In the case of SNAP kinetics with BG-TMR, the substrate concentration was fitted by DynaFit to rule out quantification errors of the BG-quenched fluorophore. Accurate fitting of the concentration was ensured by including conditions in which protein is limiting and no maximum FP value was reached.
Background: Fluorescence polarisation rises when a labelled molecule tumbles more slowly, as on binding a larger partner.
As for `CN(CCCC(=O)NCCOCCOCCOCCNC(=O)CCCC[C@H]1SC[C@H]2NC(=O)N[C@H]21)c1ccc2c(-c3cc(C(=O)NCCOCCOCCCCCCCl)ccc3C(=O)[O-])c3ccc(=[N+](C)C)cc-3oc2c1` [CA-TMR-biotin], the “fold increase in labeling kinetics relative to CA-PEG-biotin” value was above 500 fold.

Staying with this assay, now noted: HT7, stopped flow, model 2.
In the case of `C[Si]1(C)C2=CC(=[N+]3CCC3)C=CC2=C(c2c(F)c(C(=O)NCCOCCOCCCCCCCl)c(F)c(F)c2C(=O)[O-])c2ccc(N3CCC3)cc21` [CA-JF669], the “k2 (± S.D.)” value was 6.94 (± 0.47) s-1.

In the case of `CN(CCCC(=O)NCCOCCOCCOCCNC(=O)CCCC[C@H]1SC[C@H]2NC(=O)N[C@H]21)c1ccc2c(-c3cc(C(=O)NCCOCCOCCCCCCCl)ccc3C(=O)[O-])c3ccc(=[N+](C)C)cc-3oc2c1` [CA-TMR-biotin], the “k2 (± S.D.)” value is 8.24 (± 0.28) s-1.

Another assay deals with T1, SNAP-tag (SNAP). Nature of the assay: SNAP labeling kinetics via microplate reader (FP over time). Format: biochemical. Conditions: SNAP, plate reader, kinetic model 1. The procedure:
Labeling kinetics of SNAP and CLIP substrates were measured by recording FP over time using a microplate reader in a manner analogous to that of HT7 labeling kinetics described above with the following changes. The fluorescent substrate concentration was fixed to 20 nM, and protein concentrations were varied from 15 to 900 nM. Measurements were performed in SNAP-FP buffer.
Kinetic data from microplate reader assays were fitted to a simplified kinetic model (eq 13) described by differential eqs 14–16 using DynaFit. The dead time of the measurements and baseline FP value were put in as fixed parameters. Standard deviations (normal distribution verified) and confidence intervals of fitted parameters were estimated with the Monte Carlo method with standard settings (N = 1000, 5% worst fits discarded). In the case of BG, CP, and BC kinetics, the substrate concentration was fitted by DynaFit to rule out quantification errors of the BG, CP, or BC fluorophores. Accurate fitting of the concentration was ensured by including conditions under which protein is limiting and no maximum FP value was reached.
For the compound `CN(C)c1ccc2c(c1)C(C)(C)C1=CC(=[N+](C)C)C=CC1=C2c1cc(C(=O)NCc2ccc(COc3nc(N)nc4[nH]cnc34)cc2)ccc1C(=O)[O-]` [BG-CPY], the “kapp (value ± standard deviation)” value is recorded as “(2.17 ± 0.01) × 10^5 M^–1 s^–1”.

The assay is the same for the next values; noted with them: SNAP, plate reader, third kinetic model with slow aging event (*).
As for `CN(C)c1ccc2c(c1)C(C)(C)C1=CC(=[N+](C)C)C=CC1=C2c1cc(C(=O)NCc2ccc(COc3cc(Cl)nc(N)n3)cc2)ccc1C(=O)[O-]` [CP-CPY], the “kapp (value ± standard deviation)” value was “(1.59 ± 0.01) × 10^4 ^* M^–1 s^–1”.
